From patent publication US20090082402A1, “Methods of treating genitourinary disorders using inhibitors of soluble epoxide hydrolase” (Roche Palo Alto LLC, priority 2006, published 2009)

Test system: bladder smooth muscle
Assay: Contraction studies on isolated rat bladder strips with electrical field stimulation
Type: cell-based, Sprague-Dawley rat
Details: isolated bladder tissue
Method: Bladder strips from (male/female) Sprague-Dawley (Charles River) rat bladders were mounted in 10 ml tissue baths maintained at 37 C, containing 10 ml of a saline solution consisting of: NaCl (118.5 mM), KCl (4.8 mM), NaHCO3 (25 mM), KH2PO4 (1.2 mM), MgSO4 (1.2 mM), CaCl2 (2.5 mM), and glucose (11.0 mM). The bladder strips were aerated with a mixture of 95% O2 and 5% CO2. The tissues were initially equilibrated for one h with 1 g. resting weight. The control response to 67 mM KCl was then determined. Electrical field stimulation (EFS) was provided through platinum electrodes of 1.14 cm^2 surface area located one cm apart on either side of the tissue. Stimulation to the platinum electrodes was provided by a GRASS Medical Instruments (Quincy, Mass.) S88 Square Pulse Stimulator set to deliver 10 V pulses with a 0.5 ms pulse duration in a pulse train of 10 seconds at either 1, 2, 4, or 8 Hz.

| SMILES | effect on bladder smooth muscle stimulated by low frequency electric fields (relaxation) |
| --- | --- |
| CCCCC/C=C\C/C=C\CC1OC1C/C=C\CCCC(=O)O (stereo not shown) [8,9-EET, 8,9-epoxyeicosatrienoic acid] | no effects |
| CCCCC/C=C\CC1OC1C/C=C\C/C=C\CCCC(=O)O (stereo not shown) [11,12-EET, 11,12-epoxyeicosatrienoic acid] | no effects |
| CCCCCC(O)C(O)CC=CCC=CCC=CCCCC(=O)O (stereo not shown) [14,15-DHET, 14,15-dihydroxyeicosatrienoic acid] | no effects |
| CCCCCC1OC1CC=CCC=CCC=CCCCC(=O)O (stereo not shown) [14,15-EET, 14,15-epoxyeicosatrienoic acid] | relaxes bladder smooth muscle |
